Key:
MDA-MB-231 cells [1] = assay: Adhesion assay; assay type: cell-based, human; settings: 22e 0.475, 0.95 and 1.9 μM, 72 h
Description: Different concentrations of 22e (0, 0.475, 0.95 and 1.9 μM) were used to treat MDA-MB-231 cells for 72 h. Then the serum-free medium containing CaM stain was added, cell suspension (100 μL) was cultured to 96-well plates (2000 cells/well) for 1 h. Finally, plates were washed with PBS, fixed with 3.7% formaldehyde, washed with PBS again, and took pictures with fluorescence microscope.

MDA-MB-231 cells [2] = assay: Cell-cycle analysis (PI staining, flow cytometry); assay type: cell-based, human; settings: for cells in G2/M phase / cells in S phase / cells in G1 phase: 72 h; for cells in G2/M phase: control 11.04%; for cells in S phase: control 36.51%; for cells in G1 phase: control 52.44%
MDA-MB-231 cells [3] = assay: Detection of intracellular ROS (DCFH-DA, flow cytometry); assay type: cell-based, human; settings: 72 h, control 4.56%
Description: MDA-MB-231 cells were seeded overnight in 6-well plates, treated with different concentrations of 22e (0, 0.475, 0.95 and 1.9 μM) for another 72 h. After digestion and washing, the cell suspension was prepared and cultured with fluorescent probe 2′,7′-dichlorodihydrofluorescein diacetate (DCFH-DA, Sigma-Aldrich, Darmstadt, Germany) at 37 °C for 20 min. Then, after the cells were washed, the intracellular reactive oxygen species (ROS) was measured by flow cytometry at 488 nm (excitation wavelength) and 530 nm (emission wavelength).

MDA-MB-231 cells [4] = assay: Wound healing assay (migration); assay type: cell-based, human; settings: 22e 0.475, 0.95 and 1.9 μM, 24 h, versus untreated cells
Description: MDA-MB-231 cells were cultured in 6-well plates at 37 °C for 24 h. After the cells attached, different concentrations of 22e (0, 0.475, 0.95 and 1.9 μM) were added. Sterile pipette tips were used to scratch evenly in 6-well plates, the floating cells were washed away with PBS, and the fresh culture medium was replaced. After incubation for 24 h, the cells were photographed and the migration distance was measured.

[5] = system: TNBC cell line MDA-MB-231; assay: CCK-8 assay, antiproliferative activity against MDA-MB-231; settings: Homo sapiens, MDA-MB-231, 72 h, read-out: IC50 MDA-MB-231
MDA-MB-231 cells [6] = assay: Cell apoptosis assay (annexin V-FITC/PI, flow cytometry); assay type: cell-based, human; settings: 72 h, control 5.85%
Description: MDA-MB-231 cells were cultured in 6-well plates at 37 °C for 24 h, and then different concentrations of 22e (0, 0.475, 0.95 and 1.9 μM) were added. After 72 h of incubation, the cells were collected and suspended in binding buffer (500 μL). Finally, annexin V-fluorescein isothiocyanate (Annexin V-FITC, 5 μL) and propidium iodide (PI, 5 μL) were added, and the reaction was kept at room temperature in the dark for 10 min, then cell apoptosis was measured by flow cytometry.

MDA-MB-231 cells [7] = assay: Transwell assay (invasion); assay type: cell-based, human; settings: 22e 0.475, 0.95 and 1.9 μM, 24 h
Description: MDA-MB-231 cells were seeded in 24-well transwell plates upper chambers, different concentrations of 22e (0, 0.475, 0.95 and 1.9 μM) were incubated on the lower surface for 24 h. The cells in the upper surface of the membrane were removed, and the migrated or invaded cells of the membranes bottom surface were placed in 0.1% crystal violet for staining for 30 min. Finally, the cells that migrated or invaded of the chamber bottom were photographed and counted.

MDA-MB-231 cells [8] = assay: Comet assay (DNA damage); assay type: cell-based, human; settings: 72 h, control 0.48%
Description: DNA damage was detected by Comet Assay Kit (Keygen, Nanjing, China) according to the manufacturer’s instructions. Briefly, MDA-MB-231 cells were treated with 22e (0, 0.475, 0.95 and 1.9 μM) for 72 h. The collected cells were fixed on CometSlide for 15 min at 4 °C. Subsequently, the cells were incubated in lysis solution at 4 °C for 90 min, the slides were electrophoresed for 20 min, fixed in ethanol for 5 min, and stained with Vista Green DNA Dye. Finally, the data were got by fluorescence microscope.

COC(=O)[C@H](Cc1ccc(N(CCCl)CCCl)cc1)NC(=O)CCCC(=O)NCc1coc2ccc(OC)cc2c1=O [Compound 22e, Methyl (S)-3-(4-(bis(2-chloroethyl)amino)phenyl)-2–(5-(((6-methoxy-4-oxo-4H-chromen-3-yl)methyl)amino)-5-oxopentanamido)propanoate]
adhesion of MDA-MB-231 cells, in words (MDA-MB-231 cells [1]): inhibit the adhesion of MDA-MB-231 cells in a concentration-dependent manner | cells in G2/M phase (MDA-MB-231 cells [2]; 22e 0.475 μM): 12.98% | cells in S phase (MDA-MB-231 cells [2]; 22e 0.475 μM): 36.58% | cells in G1 phase (MDA-MB-231 cells [2]; 22e 0.475 μM): 50.44% | cells in G2/M phase (MDA-MB-231 cells [2]; 22e 0.95 μM): 14.53% | cells in S phase (MDA-MB-231 cells [2]; 22e 0.95 μM): 34.59% | cells in G1 phase (MDA-MB-231 cells [2]; 22e 0.95 μM): 50.88% | cells in G2/M phase (MDA-MB-231 cells [2]; 22e 1.9 μM): 21.28% | cells in S phase (MDA-MB-231 cells [2]; 22e 1.9 μM): 36.21% | cells in G1 phase (MDA-MB-231 cells [2]; 22e 1.9 μM): 42.51% | cells in the S phase (in words) (MDA-MB-231 cells [2]; 22e 0.475, 0.95 and 1.9 μM versus control): remained essentially unchanged | DCFH-DA positive cells ratio (MDA-MB-231 cells [3]; 22e 0.475 μM): 8.05% | DCFH-DA positive cells ratio (MDA-MB-231 cells [3]; 22e 0.95 μM): 18.47% | DCFH-DA positive cells ratio (MDA-MB-231 cells [3]; 22e 1.9 μM): 45.98% | wound closure distance (migration), in words (MDA-MB-231 cells [4]): significantly shortened | IC50 [5]: 1.9 ± 0.18 µM | total apoptosis ratio (MDA-MB-231 cells [6]; 22e 0.475 μM): 11.00% | total apoptosis ratio (MDA-MB-231 cells [6]; 22e 0.95 μM): 16.27% | total apoptosis ratio (MDA-MB-231 cells [6]; 22e 1.9 μM): 42.12% | MDA-MB-231 cells invasion, in words (MDA-MB-231 cells [7]): significantly inhibited | tail DNA percentage (MDA-MB-231 cells [8]; 22e 0.475 μM): 19.95% | tail DNA percentage (MDA-MB-231 cells [8]; 22e 0.95 μM): 38.15% | tail DNA percentage (MDA-MB-231 cells [8]; 22e 1.9 μM): 48.73%
